Reference: US12076417B2, “Plasma-derived nanoparticles” (NANOMEDX, INC., priority 2016, dated 2024)

Tests used:
[1] = system: mice; test: IVIS fluorescence imaging of ICG after tail vein injection; settings: mouse, in vivo
Protocol: In another animal experiment, mice were divided randomly into 3 groups: • 1) nanoP^3 only; • 2) nanoP^3 and ICG; or • 3) ICG only.
Following closure of the incision with silk sutures, each mouse was administered with 100 μL of the corresponding sample groups via tail vein injection: nanoP^3 control (9×10^9 nanoP^3), nanoP^3-ICG (9×10^9 nanoP^3 with 2.5 μg of ICG/10^9 nanoP^3) or ICG control (22.5 μg). Non-invasive imaging using IVIS was carried out for detection of fluorescence at Ex/Em=780 nm/820 nm.

[2] = Binding kinetics of ICG to nanoP^3; assay type: physicochemical
Protocol: The binding kinetics associated with the simple nanoP^3 conjugation process can be assessed by measuring the amount of bound cargo at different incubation time points and temperatures. NanoP^3 material was conjugated with the precise amount of indocyanine green (ICG) which was calculated in Example 5 to saturate the nanoparticle surface at a monolayer, i.e. 1.9×10^6 ICG molecules on a single nanoP^3 particle (99 nm radius). […] For this experiment, the plasma parameters were set at Q=3, 10 and 3 sccm for acetylene, nitrogen and argon, 150 mTorr and 50 W. The incubation of nanoP^3 (10^9 nanoP^3/mL) with ICG was performed at room temperature, in RT-PCR grade water (pH=7) for 1 hour.

[3] = system: Horseradish Peroxidase (HRP); test: Activity of conjugated HRP detected with ABTS at 405 nm; assay type: biochemical; settings: 0.5 μg/mL HRP, 4 hours incubation, after washing off free HRP
Protocol: NanoP^3 was collected from the nanoparticle collector under sterile conditions in a tissue culture hood with RT-PCR Grade water. The concentration of nanoparticles was measured by NanoSight LM10. Nanoparticles were then conjugated to desired antibodies (Goat anti-Rat IgG-Cy5; abcam ab6565; and Goat anti-Rabbit IgG; abcam ab150089 at 1:100 dilution), drugs (Doxorubicin: Sigma-Aldrich, D1515 at 100 μg/ml and Paclitaxel-Oregon Green 488, Invitrogen P22310 at 5 μg/mL) or proteins (Peroxidase from Horseradish; Sigma-Aldrich HRP; P6782 at 0.5 μg/mL) for up to 16 hours at 4° C., protected from light. Conjugation of HRP to 150 nm gold nanoparticles was performed (Cytodiagnostics; G-150) in an identical fashion. The samples were gently agitated using Bio RS-24 mini-rotator. […] The fluorescent intensity was measured using a plate reader, the Ex/Em were set in accordance to the fluorescent dye tag on each antibody or drug. […] For detection of HRP, conjugated nanoparticles and respective controls were incubated with ABTS (Sigma-Aldrich; A1888) and hydrogen peroxide (Merck; 386790) until colour was visible and measured at 405 nm. […]
Nanoparticles of nanoP^3 and gold (GNPs) were conjugated with horseradish peroxidase (HRP). These were detected by incubation with 2,2′-azino-bis(3-ethylbenzothiazoline-6-sulphonic acid) (ABTS). […]

Which “fluorescence by IVIS at Ex/Em=780 nm/820 nm” value [1] does the source give for CC1(C)C(/C=C/C=C/C=C/C=C2\N(CCCCS(=O)(=O)[O-])c3ccc4ccccc4c3C2(C)C)=[N+](CCCCS(=O)(=O)[O-])c2ccc3ccccc3c21.[Na+] [ICG, sodium 4-[2-[(1E,3E,5E,7Z)-7-[1,1-dimethyl-3-(4-sulfonatobutyl)benzo[e]indol-2ylidene]hepta-1,3,5-trienyl]-1,1-dimethylbenzo[e]indol-3-ium-3-yl]butane-1-sulfonate] here?
Its value is “absent”.

And the “time to surface saturation” value ([2]; both 24° C. and 4° C.)?
The value was “less than 5 minutes”.

What about the “total cargo immobilized on nanoP^3 within first 30 seconds” value ([2]; incubation at 4° C.) of the same compound?
Its value is 60%.

What about the “total cargo immobilized on nanoP^3 within first 30 seconds” value ([2]; incubation at 24° C.) of the same compound?
The value was 90%.

For Horseradish Peroxidase [HRP alone], which “HRP activity (absorbance at 405 nm with ABTS)” value [3] is on record?
The value was “below background levels of activity”.
